Data from patent US8309577B2, “Quinuclidine compounds as α-7 nicotinic acetylcholine receptor ligands” (Bristol-Myers Squibb Company, priority 2008, dated 2012).

What follows are molecules tested against T1, α-7 nicotinic acetylcholine receptor channel expressed in HEK 293 cells (Rattus norvegicus, UniProt Q05941) (assay: Ca2+-sensitive fluorescence-based FLIPR assay, α7 nicotinic ACh receptor channel function (agonist)). Conditions: FLIPR α7 (EC50, nM), Table 1; HEK 293 cells, agonist Ca2+ flux.
T1 construct: expressed in transfected cells
Format: cell-based
In short: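 Potency and efficacy derived from kinetic FLIPR Ca²⁺-flux fluorescence, recorded 3 min after compound addition in Hanks buffer following a 10 s baseline.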

T1 sequence (Q05941 23-502): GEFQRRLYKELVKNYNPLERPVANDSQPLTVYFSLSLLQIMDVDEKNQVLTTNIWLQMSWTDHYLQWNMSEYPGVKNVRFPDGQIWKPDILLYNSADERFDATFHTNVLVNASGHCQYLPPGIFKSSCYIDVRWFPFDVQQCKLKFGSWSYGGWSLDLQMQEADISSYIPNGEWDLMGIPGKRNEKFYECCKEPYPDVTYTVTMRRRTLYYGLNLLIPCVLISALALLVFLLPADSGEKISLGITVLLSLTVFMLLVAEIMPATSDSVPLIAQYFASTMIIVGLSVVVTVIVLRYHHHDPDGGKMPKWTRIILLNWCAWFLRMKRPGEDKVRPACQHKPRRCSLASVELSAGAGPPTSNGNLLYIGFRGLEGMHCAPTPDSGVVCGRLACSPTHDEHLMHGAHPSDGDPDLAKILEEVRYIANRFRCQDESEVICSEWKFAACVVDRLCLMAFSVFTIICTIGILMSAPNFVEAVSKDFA

Compared with Cc1nc(NC2=NC[C@@]3(CN4CCC3CC4)O2)sc1C [Example 187], Brc1cnc(NC2=NC[C@@]3(CN4CCC3CC4)O2)nc1C1CC1 [Example 210] is 47-fold lower in EC50: 424 nM for the first, 9 nM for the second. The second is the more potent here.

Brc1cnc(NC2=NC[C@@]3(CN4CCC3CC4)O2)nc1-c1ccccc1 [Example 193] and c1ccc2c(c1)OCc1cnc(NC3=NC[C@@]4(CN5CCC4CC5)O3)nc1-2 [Example 196] are within 1.5-fold of each other in EC50: 17 nM for the first, 13 nM for the second.

c1cncc(-c2ccnc(NC3=NC[C@@]4(CN5CCC4CC5)O3)n2)c1 [Example 194] and Brc1ccc(NC2=NC[C@@]3(CN4CCC3CC4)O2)nc1 [Example 198] are within 1.5-fold of each other in EC50: 18 nM for the first, 15 nM for the second.

First: c1nc(NC2=NC[C@@]3(CN4CCC3CC4)O2)nc2c1CCC2 [Example 202]
Second: Clc1cnc(NC2=NC[C@@]3(CN4CCC3CC4)O2)nc1 [Example 213]
The EC50 of the first is 1.8-fold higher: 16 nM for the first, 9 nM for the second.

Work on COCc1cc(NC2=NC[C@@]3(CN4CCC3CC4)O2)ncn1 [Example 218, (R)—N-(6-(methoxymethyl)pyrimidin-4-yl)-4H-1′-azaspiro[oxazole-5,3′-bicyclo[2.2.2]octan]-2-amine] yielded an EC50 of 285 nM.

Same assay, conditions: FLIPR α7 activity rating (EC50, nM), Table 1; HEK 293 cells, agonist Ca2+ flux

Compared with Cc1nnc(NC2=NC[C@@]3(CN4CCC3CC4)O2)nc1C [Example 182], Cc1nc(NC2=NC[C@@]3(CN4CCC3CC4)O2)nc(Cl)c1C [Example 203] is lower in EC50: 100 to 1000 nM for the first, less than 100 nM for the second. The second is the more potent here.

Compared with FC(F)(F)Oc1ccc2[nH]nc(NC3=NC[C@@]4(CN5CCC4CC5)O3)c2c1 [Example 183], FC(F)(F)c1cccc2c(NC3=NC[C@@]4(CN5CCC4CC5)O3)n[nH]c12 [Example 206] is higher in EC50: less than 100 nM for the first, 1000 to 100000 nM for the second. The first is the more potent here.

Cc1cnc(NC2=NC[C@@]3(CN4CCC3CC4)O2)c(C)n1 [Example 186] and Cc1nc(NC2=NC[C@@]3(CN4CCC3CC4)O2)sc1C [Example 187] fall in the same range of EC50: 100 to 1000 nM for the first, 100 to 1000 nM for the second.

First: c1ccc(-c2n[nH]c(NC3=NC[C@@]4(CN5CCC4CC5)O3)n2)cc1 [Example 188]
Second: Cc1nc(NC2=NC[C@@]3(CN4CCC3CC4)O2)sc1-c1ccccc1 [Example 189]
The EC50 of the first is higher: 1000 to 100000 nM for the first, 100 to 1000 nM for the second. The second is the more potent here.

First: Cn1ccc(NC2=NC[C@@]3(CN4CCC3CC4)O2)n1 [Example 190]
Second: Fc1ccc(NC2=NC[C@@]3(CN4CCC3CC4)O2)nc1 [Example 197]
The EC50 of the first is higher: 1000 to 100000 nM for the first, less than 100 nM for the second.

Cc1cnc(NC2=NC[C@@]3(CN4CCC3CC4)O2)nc1-c1ccccc1 [Example 191] and Brc1cnc(NC2=NC[C@@]3(CN4CCC3CC4)O2)nc1-c1ccccc1 [Example 193] cannot be ordered by EC50: less than 100 nM for the first, less than 100 nM for the second.

Compared with c1ccc(-c2ccnc(NC3=NC[C@@]4(CN5CCC4CC5)O3)n2)nc1 [Example 192], c1cncc(-c2ccnc(NC3=NC[C@@]4(CN5CCC4CC5)O3)n2)c1 [Example 194] is lower in EC50: 100 to 1000 nM for the first, less than 100 nM for the second. The second is the more potent here.

First: c1ccc(-c2nc(NC3=NC[C@@]4(CN5CCC4CC5)O3)ncc2-n2cncn2)cc1 [Example 195]
Second: Brc1cnc(NC2=NC[C@@]3(CN4CCC3CC4)O2)nc1-c1cccnc1 [Example 230, (R)—N-(5-Bromo-4-(pyridin-3-yl)pyrimidin-2-yl)-4H-1′-azaspiro[oxazole-5,3′-bicyclo[2.2.2]octan]-2-amine]
The EC50 of the first is higher: 1000 to 100000 nM for the first, less than 100 nM for the second. The second is the more potent here.

c1ccc2c(c1)OCc1cnc(NC3=NC[C@@]4(CN5CCC4CC5)O3)nc1-2 [Example 196] and c1nc(NC2=NC[C@@]3(CN4CCC3CC4)O2)nc2c1CCC2 [Example 202] cannot be ordered by EC50: less than 100 nM for the first, less than 100 nM for the second.

Brc1ccc(NC2=NC[C@@]3(CN4CCC3CC4)O2)nc1 [Example 198] and Clc1ccc(NC2=NC[C@@]3(CN4CCC3CC4)O2)nc1 [Example 214] cannot be ordered by EC50: less than 100 nM for the first, less than 100 nM for the second.

First: COc1cc(NC2=NC[C@@]3(CN4CCC3CC4)O2)ccn1 [Example 199]
Second: Clc1ccnc(NC2=NC[C@@]3(CN4CCC3CC4)O2)c1 [Example 215]
The EC50 of the first is higher: 1000 to 100000 nM for the first, less than 100 nM for the second. The second is the more potent here.

Fc1ccc2nc(NC3=NC[C@@]4(CN5CCC4CC5)O3)sc2c1 [Example 200] and O=c1ccc2nc(NC3=NC[C@@]4(CN5CCC4CC5)O3)sc2[nH]1 [Example 237, (R)-2-(4H-1′-azaspiro[oxazole-5,3′-bicyclo[2.2.2]octane]-2-ylamino)thiazolo[5,4-b]pyridin-5(4H)-one] cannot be ordered by EC50: less than 100 nM for the first, less than 100 nM for the second.

First: c1nc(NC2=NC[C@@]3(CN4CCC3CC4)O2)nc2c1CCCC2 [Example 201]
Second: O=C1CCCc2nc(NC3=NC[C@@]4(CN5CCC4CC5)O3)ncc21 [Example 204]
The EC50 of the first is lower: less than 100 nM for the first, 100 to 1000 nM for the second.

First: N#Cc1ccnc(NC2=NC[C@@]3(CN4CCC3CC4)O2)c1 [Example 205]
Second: c1cc(NC2=NC[C@@]3(CN4CCC3CC4)O2)ccn1 [Example 235, (R)—N-(Pyridin-4-yl)-4H-1′-azaspiro[oxazole-5,3′-bicyclo[2.2.2]octan]-2-amine]
The EC50 of the first is lower: 100 to 1000 nM for the first, 1000 to 100000 nM for the second.

c1ccc(-c2ccc(NC3=NC[C@@]4(CN5CCC4CC5)O3)nc2)cc1 [Example 207] and c1ccc(Oc2cc(NC3=NC[C@@]4(CN5CCC4CC5)O3)ncn2)cc1 [Example 240, (R)—N-(6-Phenoxypyrimidin-4-yl)-4H-1′-azaspiro[oxazole-5,3′-bicyclo[2.2.2]octan]-2-amine] fall in the same range of EC50: 100 to 1000 nM for the first, 100 to 1000 nM for the second.

COc1ccc2c(c1)nc(NC1=NC[C@@]3(CN4CCC3CC4)O1)n2C [Example 208] and COc1ccc2c(c1)c(NC1=NC[C@@]3(CN4CCC3CC4)O1)nn2C [Example 212] fall in the same range of EC50: 1000 to 100000 nM for the first, 1000 to 100000 nM for the second.

c1cc(C2CC2)nc(NC2=NC[C@@]3(CN4CCC3CC4)O2)n1 [Example 209] and Brc1cnc(NC2=NC[C@@]3(CN4CCC3CC4)O2)nc1C1CC1 [Example 210] cannot be ordered by EC50: less than 100 nM for the first, less than 100 nM for the second.

Compared with COc1ccc2c(NC3=NC[C@@]4(CN5CCC4CC5)O3)nn(C)c2c1 [Example 211], COc1ccc2ncc(NC3=NC[C@@]4(CN5CCC4CC5)O3)nc2c1 [Example 241, (R)—N-(7-methoxyquinoxalin-2-yl)-4H-1′-azaspiro[oxazole-5,3′-bicyclo[2.2.2]octan]-2-amine] is higher in EC50: 100 to 1000 nM for the first, 1000 to 100000 nM for the second.

Compared with Clc1cnc(NC2=NC[C@@]3(CN4CCC3CC4)O2)nc1 [Example 213], CCc1cnc(NC2=NC[C@@]3(CN4CCC3CC4)O2)nc1 [Example 227] is higher in EC50: less than 100 nM for the first, 100 to 1000 nM for the second. The first is the more potent here.

Compared with CC(C)Oc1cnc(NC2=NC[C@@]3(CN4CCC3CC4)O2)cn1 [Example 216], CC(C)Oc1cc(NC2=NC[C@@]3(CN4CCC3CC4)O2)ncn1 [Example 232, (R)—N-(6-Isopropoxypyrimidin-4-yl)-4H-1′-azaspiro[oxazole-5,3′-bicyclo[2.2.2]octan]-2-amine] is lower in EC50: 1000 to 100000 nM for the first, 100 to 1000 nM for the second. The second is the more potent here.

CN1CCCC1c1ccc(NC2=NC[C@@]3(CN4CCC3CC4)O2)nc1 (stereo partly drawn) [Example 217] and c1nc(NC2=NC[C@@]3(CN4CCC3CC4)O2)ncc1OC1CCCC1 [Example 219, (R)—N-(5-(Cyclopentyloxy)pyrimidin-2-yl)-4H-1′-azaspiro[oxazole-5,3′-bicyclo[2.2.2]octan]-2-amine] fall in the same range of EC50: 1000 to 100000 nM for the first, 1000 to 100000 nM for the second.

First: COCc1cc(NC2=NC[C@@]3(CN4CCC3CC4)O2)ncn1 [Example 218, (R)—N-(6-(methoxymethyl)pyrimidin-4-yl)-4H-1′-azaspiro[oxazole-5,3′-bicyclo[2.2.2]octan]-2-amine]
Second: FC(F)(F)COc1cc(NC2=NC[C@@]3(CN4CCC3CC4)O2)ncn1 [Example 228, (R)—N-(6-(2,2,2-Trifluoroethoxy)pyrimidin-4-yl)-4H-1′-azaspiro[oxazole-5,3′-bicyclo[2.2.2]octan]-2-amine]
The EC50 of the first is higher: 100 to 1000 nM for the first, less than 100 nM for the second.

First: CC(C)c1cc2c(NC3=NC[C@@]4(CN5CCC4CC5)O3)ncnc2s1 [Example 223]
Second: CC(C)c1nc(NC2=NC[C@@]3(CN4CCC3CC4)O2)ncc1Br [Example 229, (R)—N-(5-Bromo-4-isopropylpyrimidin-2-yl)-4H-1′-azaspiro[oxazole-5,3′-bicyclo[2.2.2]octan]-2-amine]
The EC50 of the first is higher: 100 to 1000 nM for the first, less than 100 nM for the second.

First: c1nc(NC2=NC[C@@]3(CN4CCC3CC4)O2)cc(OC2CCCC2)n1 [Example 231, (R)—N-(6-(Cyclopentyloxy)pyrimidin-4-yl)-4H-1′-azaspiro[oxazole-5,3′-bicyclo[2.2.2]octan]-2-amine]
Second: c1ccc(COc2ccc3nc(NC4=NC[C@@]5(CN6CCC5CC6)O4)sc3n2)cc1 [Example 236, (R)—N-(5-(Benzyloxy)thiazolo[5,4-b]pyridin-2-yl)-4H-1′-azaspiro[oxazole-5,3′-bicyclo[2.2.2]octan]-2-amine]
The EC50 of the first is lower: 100 to 1000 nM for the first, 1000 to 100000 nM for the second. The first is the more potent here.
